This is an account of results in ChEMBL document CHEMBL1153329, “Bioactive metabolites produced by Chaetomium globosum, an endophytic fungus isolated from Ginkgo biloba” (Bioorg Med Chem Lett, 2009).

The subject of one series is Rhizomucor miehei. Briefly: Antimicrobial activity against Mucor miehei at 10 ug/disk by agar diffusion method. In kind it is functional. The note with it: read-out: IZ. (A growth-free zone around the sample is the usual read-out of agar diffusion tests.)
Series [1] in a line: Toxicity against Artemia salina assessed as mortality rate at 10 ug/mL after 24 hrs by small modified microtiter-plate method. The class given is organism-based. The note with it: in vivo, read-out: Activity.

As to `C/C1=C\[C@@H](C)C/C=C/[C@H]2[C@@H]3O[C@]3(C)[C@@H](C)[C@H]3[C@H](Cc4c[nH]c5ccccc45)NC(=O)[C@]32C(=O)/C=C/C(=O)[C@@H]1O` [CHAETOGLOBOSIN A], in the series on Rhizomucor miehei, the zone of inhibition at 10 µg/disc turned out to be 25 mm. Moreover, the mortality at 24 h, 10 ug/mL in series [1] was found to be 83.4%. For `C/C1=C\[C@@H](C)C/C=C/[C@H]2[C@@H]3O[C@]3(C)[C@@H](C)[C@H]3[C@H](Cc4c[nH]c5ccccc45)NC(=O)[C@]32C(=O)CCC(=O)C1=O` [CHAETOGLOBOSIN C] the same measures were 15 mm and 75.3%. Regarding `C[C@H](/C=C/C1=CC2=C(Cl)C(=O)[C@@]3(C)O[C@]4(O)[C@H](C)[C@@H](C)OC(=O)[C@@H]4[C@H]3C2=CO1)[C@@H](C)O` [CHAETOMUGILIN A], in series [1], the mortality at 24 h, 10 ug/mL came out at 78.3%. Same read-out and setting: the result for `CC[C@H](C)/C=C/C1=CC2=C(Cl)C(=O)[C@@]3(C)O[C@]4(O)[C@H](C)[C@@H](C)OC(=O)[C@@H]4[C@H]3C2=CO1` [CHAETOMUGILIN D] reads 75.2%.
